Series [1] relates to human renal proximal tubular epithelial cells (RPTE). As to the kind of experiment: Viability assay (MultiTox-Glo) in RPTE cells. The class given is cell-based. Particulars: 15 μM to 1200 μM, 24 hours. The protocol:
(§1) Cell culture: RPTE cells were grown in Renal Epithelial Cell Basal Medium (REBM) with full supplements at 37° C. in 5% CO2 incubator as per supplier's instructions. RPTE cells were able to proliferate for 6-8 passages under the culture conditions.
Viability and Cytotoxicity Assays: Cytotoxicity and viability were determined using MultiTox-Glo Multiplex Cytotoxicity Assay kit as per manufacturer's protocols. RPTE cells were seeded in 96-well culture plates at a density of 1.2×10^4 cells per well. Subsequently, TUDCA was added to the wells to achieve final concentrations of 15, 150, 300, 450, 600, and 1200 μM. Following 24 hours of culture, to determine viability, 50 μL of GF-AFC Reagent was added to each well. The plates were gently shaken and incubated at 37° C. for 30 minutes in the dark. The cell viability was determined by measuring fluorescence at 400 nmEx/505 nmEm. Subsequently, to determine cytotoxicity, 50 μL of AAF-Glo Reagent was added to each well. The plates were shaken gently and incubated at room temperature for 15 minutes in the dark. Cytotoxicity was determined by measuring luminescence as per manufacturer's protocol.

Another series concerns caspase-9. As to the kind of experiment: Caspase-9 activity assay in RPTE cells after cryopreservation injury. Particulars: 100 μM and 150 μM, p<0.05. The class given is cell-based, human. Here is the method: as §1
Cryopreservation injury: We have utilized a published cell culture model of cryopreservation injury. In brief, RPTE cells were grown to 80% confluence in the complete medium containing TUDCA or vehicle. The complete medium was then replaced with University of Wisconsin solution containing TUDCA or vehicle. The culture plates were subsequently incubated in a temperature-regulated refrigerator at 4° C. for 48 hours. To simulate warm reperfusion phase of kidney transplantation, University of Wisconsin solution was replaced with complete medium containing TUDCA or vehicle, and cells were cultured for an additional 24 hours at 37° C. We used 100 μM or 150 μM of TUDCA for these experiments.
Caspase-9 Assay: The caspase-9 activity was measured in RPTE cells using Caspase-9 Assay kit. RPTE cells were suspended in 50 μL of chilled Cell Lysis Buffer and incubated on ice for 10 minutes. Subsequently, 50 μL of 2× Reaction Buffer and 5 μL of 1 mM LEHD-AFC substrate was added to each sample and the mixtures were incubated at 37° C. for 2 hours. The caspase-9 activity was quantified by measuring […].

This note sets out measurements from patent publication US20160051567A1, “PREVENTION AND TREATMENT OF KIDNEY DAMAGE” (METSELEX, INC., priority 2013, published 2016).

Regarding `C[C@H](CCC(=O)NCCS(=O)(=O)O)[C@H]1CC[C@H]2[C@@H]3[C@@H](O)C[C@@H]4C[C@H](O)CC[C@]4(C)[C@H]3CC[C@]12C` [TUDCA, tauroursodeoxycholic acid], in series [1], the cell viability entry was “None of the tested concentrations of TUDCA decreased cell viability”. The “caspase-9 activation after cryopreservation injury” value in the series on caspase-9 is given as “significantly inhibited”.
